The target of series [1] is T1, human P2X3 receptor (Homo sapiens (Human), UniProt P56373). The experiment in a line: Evaluation of human P2X3 receptor inhibitory activity (FLIPR Ca fluorescence, ATP-evoked). Format: cell-based. The note with it: C6BU-1 cells stably expressing human P2X3 receptor. As for the experimental part: Stably expressing cell line (C6BU-1 cell transfected with human P2X3 receptor gene (GenBank accession number Y07683) was used. The cells were seeded in a 384-well PDL-coated microtiter plate at a concentration of 3000 cells/well and cultured in the medium (8.3% fetal bovine serum, 8.3% horse serum, and 1% antibiotic and antifungal in DMEM) for one day at 37° C. under 5% carbon dioxide atmosphere. The medium was replaced with 4 μM Fluo-3-AM solution (20 mM HEPES, 137 mM NaCl, 2.7 mM KCl, 0.9 mM MgCl2, 5.0 mM CaCl2, 5.6 mM D-glucose, 2.5 mM probenecid, 0.5% BSA, and 0.04% Pluronic P-127, pH 7.5) and incubated at 37° C. under 5% dioxide carbon atmosphere for one hour. The plate was washed with washing buffer (20 mM HEPES, 137 mM NaCl, 2.7 mM KCl, 0.9 mM MgCl2, 5.0 mM CaCl2, 5.6 mM D-glucose, 2.5 mM probenecid, pH 7.5), and each well was added with 20 μL of the washing buffer. The plate was placed in High-Throughput Screening System FLIPR 384 (Molecular Device Co.). Measurement of fluorescence intensity by […] was started, and 20 μL of DMSO solutions containing different concentrations of the test compound as prepared by dilution with dilution buffer (20 mM HEPES, 137 mM NaCl, 2.7 mM KCl, 0.9 mM MgCl2, 5.0 mM CaCl2, 5.6 mM D-glucose, 2.5 mM probenecid, 0.1% Pluronic F-127, pH 7.5) were dispensed to each well through the built-in automatic dispenser. Five minutes after, 150 nM ATP solution (25 μL) prepared by dilution with the dilution buffer was dispensed through the built-in automatic dispenser, and the measurement of fluorescence intensity was continued for 4 min. For each well, the specific maximum fluorescence intensity was calculated as the ratio of the maximum fluorescence intensity after addition of the ATP solution to the fluorescence intensity at the starting of the measurement. […] The specific maximum fluorescence intensify and IC50 were calculated using Spotfire (Science & Technology Systems. Inc.)
T1 sequence (P56373 whole entry): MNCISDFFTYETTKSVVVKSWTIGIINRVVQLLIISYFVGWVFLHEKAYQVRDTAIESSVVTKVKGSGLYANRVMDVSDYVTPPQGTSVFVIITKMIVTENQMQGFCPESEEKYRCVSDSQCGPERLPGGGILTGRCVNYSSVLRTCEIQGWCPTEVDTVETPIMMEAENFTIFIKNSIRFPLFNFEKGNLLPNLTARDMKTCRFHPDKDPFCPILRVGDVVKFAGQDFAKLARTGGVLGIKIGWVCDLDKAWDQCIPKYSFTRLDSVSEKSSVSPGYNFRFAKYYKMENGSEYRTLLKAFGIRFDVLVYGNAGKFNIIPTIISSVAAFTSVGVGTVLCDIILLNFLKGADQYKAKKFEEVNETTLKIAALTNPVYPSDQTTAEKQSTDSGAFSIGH

For series [2], the target named is CYP2C19 (Homo sapiens (Human), UniProt P33261). Briefly: CYP inhibition test, CYP2C19. As to conditions: pooled human hepatic microsome; mephenytoin 4′-hydroxylation. Format: in vitro ADME. As for the experimental part: (§1) Using commercially available pooled human hepatic microsome, and employing, as markers, 7-ethoxyresorufin-O-deethylation (CYP1A2), tolbutamide methyl-hydroxylation (CYP2C9), mephenytoin 4′-hydroxylation (CYP2C19), dextromethorphan O-demethylation (CYP2D6), and terfenedine hydroxylation as typical substrate metabolism reactions of human main five CYP enzyme forms (CYP1A2, 2C9, 2C19, 2D6, 3A4), an inhibitory degree of each metabolite production amount by a test compound was assessed.
CYP2C19, sequence (P33261 whole entry): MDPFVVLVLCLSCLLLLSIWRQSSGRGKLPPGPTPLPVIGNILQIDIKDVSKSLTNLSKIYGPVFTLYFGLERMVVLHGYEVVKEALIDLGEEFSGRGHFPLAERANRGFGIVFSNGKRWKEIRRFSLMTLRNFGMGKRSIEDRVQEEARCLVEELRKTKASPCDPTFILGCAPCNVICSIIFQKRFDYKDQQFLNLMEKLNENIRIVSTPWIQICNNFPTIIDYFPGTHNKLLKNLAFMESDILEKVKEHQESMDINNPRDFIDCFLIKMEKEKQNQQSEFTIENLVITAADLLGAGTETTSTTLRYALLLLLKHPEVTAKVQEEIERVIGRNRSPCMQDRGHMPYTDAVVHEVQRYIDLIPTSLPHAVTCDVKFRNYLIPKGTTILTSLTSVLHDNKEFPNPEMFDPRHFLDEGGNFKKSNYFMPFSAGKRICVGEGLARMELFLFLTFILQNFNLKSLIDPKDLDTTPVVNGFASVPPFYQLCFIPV
(§2) The reaction conditions were as follows: substrate, 0.5 μmol/L ethoxyresorufin (CYP1A2), 100 μmol/L tolbutamide (CYP2C9), 50 μmol/L S-mephenitoin (CYP2C19), 5 μmol/L dextromethorphan (CYP2D6), 1 μmol/L terfenedine (CYP3A4); reaction time, 15 minutes; reaction temperature, 37° C. enzyme, pooled human hepatic microsome 0.2 mg protein/mL; test, drug concentration, 1.0, 5.0, 10, 20 μmol/L (four points).
(§3) Each five kinds of substrates, human hepatic microsome, or a test drug in 50 mmol/L Hepes buffer as a reaction solution was added to a […] at the composition as described above, NADPH, as a cofactor was added to initiate metabolism reactions as markers and, after the incubation at 37° C. for 15 minutes, a methanol/acetonitrile=1/1 (v/v) solution was added to stop the reaction. After the centrifugation at 3000 rpm for 15 minutes, resorufin (CYP1A2 metabolite) in the supernatant was quantified by a fluorescent multilabel counter and tributamide hydroxide (CYP2CP metabolite), mephenytoin 4′hydroxide (CYP2C19 metabolite), […] (CYP2D6 metabolite), and terfenadine alcohol (CYP3A4 metabolite) were quantified by LC/MS/MS.
(§4) Addition of only DMSO being a solvent dissolving a drug to a reaction system was adopted as a control (100%), remaining activity (%) was calculated at each concentration of a test drug added as the solution and IC50 was calculated by reverse presumption by a logistic model using a concentration and an inhibition rate.

The nature of series [3]: Solubility test (1% DMSO, artificial intestinal juice pH 6.8). The class given is physicochemical. The note with it: artificial intestinal juice pH 6.8 with 1% DMSO, 25 °C, fassgf or other biorelevant, kinetic from dmso stock, artificial intestinal juice pH 6.8, 25 degrees Celsius, read-out: Solubulity. As for the experimental part:
The solubility of a compound was determined under a condition in which 1% DMSO was added. 10 mmol/L compound solution was prepared using DMSO, and then 2 μL of the compound solution was added to 198 μL of artificial intestinal juice in pH 6.8 (to 250 mL of 0.2 mol/L potassium dihydrogen phosphate reagent solution was added 118 mL of 0.2 mol/L NaOH reagent solution and water to provide a final volume of 1000 mL). After standing at 25 degrees Celsius for 18 hours, the mixed solution was filtrated with suction. The filtrate was diluted twice with methanol/water (1/1), and then a concentration in the filtration was measured with HPLC or LC/MS/MS by the absolute calibration method.

For series [4], the target named is CYP1A2 (Homo sapiens (Human), UniProt P05177). Briefly: CYP inhibition test, CYP1A2. Format: in vitro ADME. As to conditions: pooled human hepatic microsome; 7-ethoxyresorufin-O-deethylation. As for the experimental part:
as §1, §2, §3, §4

Series [5] concerns the target CYP3A4 (Homo sapiens (Human), UniProt P08684). The experiment in a line: CYP inhibition test, CYP3A4. Format: in vitro ADME. As to conditions: pooled human hepatic microsome; terfenedine hydroxylation. As for the experimental part:
as §1, §2, §3, §4

The target of series [6] is CYP2C9 (Homo sapiens (Human), UniProt P11712). Briefly: CYP inhibition test, CYP2C9. The class given is in vitro ADME. As to conditions: pooled human hepatic microsome; tolbutamide methyl-hydroxylation. As for the experimental part: as §1, §2, §3, §4
CYP2C9, sequence (P11712 whole entry): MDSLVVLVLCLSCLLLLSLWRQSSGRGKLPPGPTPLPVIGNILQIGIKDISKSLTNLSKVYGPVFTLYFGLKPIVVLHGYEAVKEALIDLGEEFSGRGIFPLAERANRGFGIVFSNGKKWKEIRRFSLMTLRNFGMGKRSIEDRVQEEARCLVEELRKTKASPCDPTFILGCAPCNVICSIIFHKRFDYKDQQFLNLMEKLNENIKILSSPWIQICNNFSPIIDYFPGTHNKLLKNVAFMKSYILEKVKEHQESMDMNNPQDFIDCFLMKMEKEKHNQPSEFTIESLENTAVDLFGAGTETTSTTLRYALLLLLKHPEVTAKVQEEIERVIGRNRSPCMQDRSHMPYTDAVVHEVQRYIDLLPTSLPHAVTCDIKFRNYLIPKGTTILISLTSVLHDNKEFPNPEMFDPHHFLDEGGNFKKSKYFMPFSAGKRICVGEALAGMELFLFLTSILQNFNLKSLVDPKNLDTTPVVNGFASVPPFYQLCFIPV
A short description of series [7]: Metabolism stability test, pooled human hepatic microsomes. Format: in vitro ADME. As to conditions: remaining rate, human liver microsomes, 30 minutes, compound concentration 0.5 μmol/L. As for the experimental part:
Using commercially available pooled human hepatic microsomes, a test compound is reacted for a constant time, a remaining rate is calculated by comparing a reacted sample and an unreacted sample, thereby, a degree of metabolism in liver is assessed.
A reaction was performed (oxidative reaction) at 37° C. for 0 minute or 30 minutes in the presence of 1 mmol/L NADPH in 0.2 mL of a buffer (50 mmol/L tris-HCl pH 7.4, 150 mmol/L potassium chloride, 10 mmol/L magnesium chloride) containing 0.5 mg protein/mL of human liver microsomes. After the reaction, 50 μL of the reaction solution was added to 100 μL of a methanol/acetonitrile=1/1 (v/v) mixed and centrifuged at 3000 rpm for 15 minutes. The test compound in the supernatant was quantified by LC/MS/MS, and a remaining amount of the test compound after the reaction was calculated, letting a compound amount at 0 minute reaction time to be 100%.
The remaining rate at the compound concentration 0.5 μmol/L are shown below.

Series [8] deals with CYP2D6 (Homo sapiens (Human), UniProt P10635). Briefly: CYP inhibition test, CYP2D6. The class given is in vitro ADME. The note with it: pooled human hepatic microsome; dextromethorphan O-demethylation. As for the experimental part: as §1, §2, §3, §4
CYP2D6, sequence (P10635 whole entry): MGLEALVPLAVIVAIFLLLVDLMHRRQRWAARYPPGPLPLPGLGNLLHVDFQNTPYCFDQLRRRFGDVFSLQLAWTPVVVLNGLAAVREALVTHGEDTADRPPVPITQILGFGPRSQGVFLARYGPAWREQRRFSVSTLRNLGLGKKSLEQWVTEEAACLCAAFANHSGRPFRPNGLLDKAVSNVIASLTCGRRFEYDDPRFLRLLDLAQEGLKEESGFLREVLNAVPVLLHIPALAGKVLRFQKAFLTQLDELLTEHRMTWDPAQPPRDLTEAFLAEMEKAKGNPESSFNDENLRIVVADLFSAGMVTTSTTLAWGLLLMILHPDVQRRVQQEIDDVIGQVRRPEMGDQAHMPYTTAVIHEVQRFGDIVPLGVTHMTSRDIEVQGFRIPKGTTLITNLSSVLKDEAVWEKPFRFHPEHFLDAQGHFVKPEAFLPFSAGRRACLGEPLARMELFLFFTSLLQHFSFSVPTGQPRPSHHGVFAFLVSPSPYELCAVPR
Series [9] deals with T1, human P2X3 receptor. The experiment in a line: Evaluation of human P2X3 receptor inhibitory activity in the presence of human serum albumin (HSA). Format: cell-based. As to conditions: in the presence of 1% HSA (final concentration). As for the experimental part:
Stably expressing cell line (C6BU-1 cell transfected with human P2X3 receptor gene (GenBank accession number Y07683; was used. The cells were seeded in a 96-well microtiter plate at a concentration of 8000 cells/well and cultured in the medium (7.0% fetal bovine serum, 7.0% horse serum, 1% antibiotic and antifungal, and 2.0% glutamine in DMEM) for one day at 37° C. under 5% carbon dioxide atmosphere. The medium was replaced with 4 μM Fluo-3-AM solution (20 mM HEPES, 137 mM NaCl, 5.37 mM KCl, 0.9 mM MgCl2, 1.26 mM CaCl2, 5.6 mM D-glucose, 2.5 mM probenecid, 0.5% BSA, and 0.04% Pluronic F-127, pH 7.5) and incubated at 37° C. under 5% dioxide carbon atmosphere for one hour. The plate was washed with washing buffer (20 mM HEPES, 137 mM NaCl, 5.27 mM KCl, 0.9 mM MgCl2, 1.26 mM CaCl2, 5.6 mM D-glucose, 2.5 mM probenecid, pH 7.5), and each well was added with 40 μL of this buffer. The plate was placed in High-Throughput Screening System FDSS 3000 (Hamamatsu Photonics K.K.). Measurement of fluorescence intensity by FDSS 3000 was started, and 40 μL of DMSO solutions containing 1% HSA (final concentrations) different concentrations of the test compound as prepared by dilution with dilution buffer (20 mM HEPES, 137 mM NaCl, 5.27 mM KCl, 0.9 mM MgCl2, 1.26 mM CaCl2, 5.6 mM D-glucose, 2.5 mM probenecid, 0.1% Pluronic F-127, pH 7.5) were dispensed to each well through the built-in automatic dispenser. Five minutes after, 50 nM ATP solution (50 μL) prepared by dilution with the dilution buffer was dispensed through the built-in automatic dispenser, and the measurement of fluorescence intensity was continued for 4 min. For each well, the specific maximum fluorescence intensity was calculated as the ratio of the maximum fluorescence intensity after addition of the ATP solution to the fluorescence intensity at the starting of the measurement. […] FDSS software (Hamamatsu Photonics K.K.) was used for calculation of the specific maximum fluorescence intensity. IC50 was calculated using Microsoft Excel (Microsoft Corporation) and XLfit (idbs Ltd.)

By IC50 is commonly meant the midpoint of a concentration-inhibition curve.

Each structure is given as a SMILES string.

CYP3A4, sequence (P08684 whole entry): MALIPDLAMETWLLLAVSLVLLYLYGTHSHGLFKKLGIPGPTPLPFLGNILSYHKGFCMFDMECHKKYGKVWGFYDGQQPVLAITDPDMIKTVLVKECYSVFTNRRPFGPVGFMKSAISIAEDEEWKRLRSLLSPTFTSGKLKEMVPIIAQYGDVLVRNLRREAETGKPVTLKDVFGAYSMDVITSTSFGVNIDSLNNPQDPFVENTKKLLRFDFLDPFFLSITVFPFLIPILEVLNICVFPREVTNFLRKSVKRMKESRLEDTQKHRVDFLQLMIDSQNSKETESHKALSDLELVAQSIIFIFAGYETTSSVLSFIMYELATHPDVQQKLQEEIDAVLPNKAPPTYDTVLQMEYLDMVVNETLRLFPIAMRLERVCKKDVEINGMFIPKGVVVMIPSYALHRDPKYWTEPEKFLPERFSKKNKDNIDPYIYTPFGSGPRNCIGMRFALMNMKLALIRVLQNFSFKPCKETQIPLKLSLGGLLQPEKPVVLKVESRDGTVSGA
CYP1A2, sequence (P05177 whole entry): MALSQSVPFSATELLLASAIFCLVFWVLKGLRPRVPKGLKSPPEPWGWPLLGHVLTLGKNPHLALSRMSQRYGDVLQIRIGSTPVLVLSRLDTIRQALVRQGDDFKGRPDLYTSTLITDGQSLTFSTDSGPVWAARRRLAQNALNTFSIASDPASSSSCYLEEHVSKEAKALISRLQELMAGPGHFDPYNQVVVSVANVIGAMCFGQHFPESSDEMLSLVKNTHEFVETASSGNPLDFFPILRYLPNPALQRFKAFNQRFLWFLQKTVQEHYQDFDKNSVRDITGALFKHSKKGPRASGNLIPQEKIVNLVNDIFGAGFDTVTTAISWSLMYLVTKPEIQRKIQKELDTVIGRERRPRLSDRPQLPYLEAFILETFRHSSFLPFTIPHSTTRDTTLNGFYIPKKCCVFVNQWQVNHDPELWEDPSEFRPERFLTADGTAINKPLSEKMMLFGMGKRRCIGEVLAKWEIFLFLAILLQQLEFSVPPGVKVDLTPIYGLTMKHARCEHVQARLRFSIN

Compound `COC(=O)[C@@H](C)Cn1c(=O)[nH]/c(=N\c2ccc(Oc3ccc(F)cn3)cc2)n(Cc2ccc(F)cc2F)c1=O` [Compound I-025] had a concentration for half-maximal inhibition (IC50) in [1] of 23 nM. Regarding `O=c1[nH]/c(=N\c2ccc(Oc3ncccc3F)cc2)n(Cc2ccc(Cl)cc2)c(=O)n1[C@H]1C[C@H](C(=O)O)C1` [Compound I-063], the half-maximal inhibitory concentration (IC50) in [2], in [4], in series [5], in series [6] and in series [8] was more than 20000 nM in each case. The solubility at 18 h in series [3] was more than 50 µM. The “Metabolism Stability” value in series [7] amounted to 97%.

For `C[C@@H](Cn1c(=O)[nH]/c(=N\c2ccc(Oc3cc(F)ccn3)cc2)n(Cc2ccc(Cl)cc2)c1=O)C(=O)O` [Compound I-070], the “Metabolism Stability” value in series [7] worked out at 103%. Further, the half-maximal inhibitory concentration (IC50) in [9] came to 37 nM. Turning to `COc1ccc(Oc2ccc(/N=c3\[nH]c(=O)n(C[C@H](C)C(=O)O)c(=O)n3Cc3ccc(Cl)cc3)cc2)nc1` [Compound I-079], in series [9], the IC50 was determined as 37 nM. `[2H]C([2H])([2H])c1ccc(Cn2c(=O)n(C[C@H](C)C(=O)O)c(=O)[nH]/c2=N\c2ccc(Oc3ccc(F)cn3)cc2)cc1` [Compound I-130] gave an IC50 in [1] of 6 nM. On the same count and under the same terms, the same measure for `COC(=O)[C@@H](C)Cn1c(=O)[nH]/c(=N\c2ccc(Oc3ccccn3)c(F)c2)n(C[C@H]2CC[C@H](C)CC2)c1=O` [Compound I-253]: 9 nM.

Turning to `C[C@@H](Cn1c(=O)[nH]/c(=N\c2ccc(Oc3ccnc(C#N)c3)cc2)n(Cc2ccc(Cl)cc2)c1=O)C(=O)O` [Compound R-123], in series [9], the IC50 is 18 nM. Consider `C[C@@H](C(=O)O)[C@H](C)n1c(=O)[nH]/c(=N\c2ccc(Oc3ccnc(Cl)c3)cc2)n(Cc2ccc(Cl)cc2)c1=O` [Compound R-154], for which, in series [1], half-maximal inhibition (IC50) was put at 8 nM. On the same count and under the same terms, to `Cc1ccc(Cn2c(=O)n(C[C@H](C)C(=O)O)c(=O)[nH]/c2=N\c2ccc(Oc3ncc(C)s3)cc2)cc1` [Compound R-218] belongs 8 nM.

Values taken from patent publication US9732060B2, “Aminotriazine derivative and pharmaceutical composition comprising the same” (Shionogi & Co., Ltd., priority 2013, dated 2017).
